Laboratory results published in patent publication US20130324412A1, “N-ALKOXYAMIDES OF 6-(SUBSTITUTED PHENYL)-4-AMINOPICOLINATES AND 2-(SUBSTITUTED PHENYL)-6-AMINO-4-PYRIMIDINECARBOXYLATES AND THEIR USE AS SELECTIVE HERBICIDES FOR CROPS” (DOW AGROSCIENCES LLC, priority 2009, published 2013).

Columns and labels:
Assay type in all cases: in vivo
[1] = tested on: sicklepod (Casia obtusifolia); assay: Postemergence herbicidal activity in corn, sicklepod; conditions: corn test, visual rating after 21 d, probit analysis, dose to kill or control 80 percent
Protocol: (§1) Seeds of corn and the desired weed species were planted in Sun Gro MetroMix 360 planting mixture, which typically has a pH of 6.0 to 6.8 and an organic matter content of about 30 percent, in plastic pots with a surface area of 95 cm^2. When required to ensure good germination and healthy plants, a fungicide treatment and/or other chemical or physical treatment was applied. The plants were grown for 7-21 d in a greenhouse with an approximate 15-h photoperiod which was maintained at about 23-29° C. during the day and 22-28° C. during the night. Nutrients and water were added on a regular basis and supplemental lighting was provided with overhead metal halide 1000-Watt lamps as necessary. The corn plants were utilized for testing when they reached the second true leaf stage. The weed species were utilized at the first or second true leaf stage.
(§2) A weighed amount, determined by the highest rate to be tested, of each test compound was dissolved in 4 mL of a 97:3 v/v mixture of acetone and DMSO to obtain concentrated stock solutions. […] The concentrated stock solutions obtained were diluted with 20 mL of an aqueous mixture containing acetone, water, isopropyl alcohol, DMSO, Atplus 411F crop oil concentrate, and Triton X-155 surfactant in a 48.5:39:10:1.5:1.0:0.02 v/v ratio to obtain spray solutions containing the highest application rates. […]
(§3) The treated plants and control plants were placed in a greenhouse as described above and watered by sub-irrigation to prevent wash-off of the test compounds. After 21 d, the condition of the test plants as compared with that of the untreated plants was determined visually and scored on a scale of 0 to 100 percent where 0 corresponds to no injury and 100 corresponds to complete kill. […]

[2] = tested on: lambsquarters (Chenopodium album); assay: General postemergence herbicidal activity, lambsquarters; conditions: post-emergence, 336 h, 70 g ai/ha, postemergence, after 14 d, 0 = no injury, 100 = complete kill, read-out: CHEAL % Visual Injury
How it was run: (§4)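 Greenhouse plants at first to second true leaf stage sprayed overhead at 187 L/ha in acetone/DMSO with crop oil concentrate and surfactant, at a high rate plus ½× to 1/16× serial dilutions. Injury rated visually after 14 d against solvent-blank controls, 0 (none) to 100% (complete kill).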

[3] = tested on: corn (Zea mays); assay: Postemergence herbicidal activity in corn, crop; conditions: visual rating after 21 d, probit analysis, dose to kill or control 20 percent
Protocol: as §1, §2, §3

[4] = tested on: velvetleaf (Abutilon theophrasti); assay: General postemergence herbicidal activity, velvetleaf; conditions: post-emergence, 336 h, 70 g ai/ha, postemergence, after 14 d, 0 = no injury, 100 = complete kill, read-out: ABUTH % Visual Injury
How it was run: as §4

COc1c(Cl)ccc(-c2cc(N)c(Cl)c(C(=O)NOCC(C)C)n2)c1F [Compound 1, 4-amino-3-chloro-6-(4-chloro-2-fluoro-3-methoxyphenyl)-N-(2-methylpropoxy)picolinamide]
CASOB GR80 [1]: 8.75 g ai/ha
pest or weed control at 70 g/ha [2]: 100%
ZEAMX GR20 [3]: >35 g ai/ha
pest or weed control at 70 g/ha [4]: 100%

CONC(=O)c1nc(-c2ccc(Cl)c(OC)c2F)cc(N)c1Cl [Compound 2, 4-Amino-3-chloro-6-(4-chloro-2-fluoro-3-methoxyphenyl)-N-methoxypicolinamide]
CASOB GR80 [1]: 17 g ai/ha
pest or weed control at 70 g/ha [2]: 100%
ZEAMX GR20 [3]: >35 g ai/ha
pest or weed control at 70 g/ha [4]: 100%
